These results are taken from patent publication US8580829B2 (Boehringer Ingelheim International GmbH, priority 2010, dated 2013).

Each structure is given as a SMILES string. Read-outs that look alike come from different tables or passages of the source.

Assay [1] concerns the target T1, recombinant human FLAP protein (Homo sapiens, UniProt P20292).
T1 construct: made in house; host or cells: Sf9 insect cells (100,000 x g membrane fraction)
T1 sequence (P20292 1-161): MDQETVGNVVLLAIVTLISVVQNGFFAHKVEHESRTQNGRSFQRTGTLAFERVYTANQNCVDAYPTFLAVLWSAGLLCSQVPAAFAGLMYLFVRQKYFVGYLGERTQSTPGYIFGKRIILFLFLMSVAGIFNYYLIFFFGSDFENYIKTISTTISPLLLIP
As to the kind of experiment: FLAP binding assay (Scintillation Proximity Assay, displacement of [125I]L-691,831). The conditions noted are these: recombinant human FLAP membranes, [125I]L-691,831 probe; read-out: FLAP SPA IC50. The method, boiled down: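 WGA scintillation proximity beads were stirred 1 h with 5 μg of FLAP-containing membrane protein. The membranes came from baculovirus Sf9 cells, Dounce-lysed and spun to a 100,000×g pellet in buffer at pH 7.5.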

For assay [2], the system named is synthesis of LTB4 in human whole blood. The assay can be described thus: human whole blood LTB4 production inhibition assay. The conditions noted are these: heparinized human whole blood, calcimycin 20 μM, read-out: hWB LTB4 IC50. It is filed as cell-based. In short, it runs like this:
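Whole-blood cellular format, heparinized human donors: 15 min compound pretreatment, then 30 min calcimycin stimulation (20 μM final), both at 37° C. Low-speed centrifugation yields plasma, in which LTB4 is read by homogeneous time-resolved fluorescence immunoassay.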

For orientation: IC50 means the midpoint of a concentration-inhibition curve. For `Nc1ncc(-c2ccc(C3(c4noc(-c5ccc(C(=O)N6CC(O)C6)nc5)n4)CCC3)cc2)cn1` [Example 64, [5-(3-{1-[4-(2-Amino-pyrimidin-5-yl)-phenyl]-cyclobutyl}-1,2,4-oxadiazol-5-yl)-pyridin-2-yl]-(3-hydroxy-azetidin-1-yl)-methanone], the IC50 is 7.7 nM in assay [1] and 310 nM in assay [2] (Homo sapiens).
Regarding `Cc1cnc(-c2nc(C3(c4ccc(-c5cnc(N)nc5)cc4)CCC3)no2)cn1` [Example 22, 5-(4-{1-[5-(5-Methyl-pyrazin-2-yl)-1,2,4-oxadiazol-3-yl]-cyclobutyl}-phenyl)-pyrimidin-2-ylamine], the IC50 turned out to be 2.6 nM in assay [1] and 140 nM in assay [2] (Homo sapiens).
In the same order, the values of `Nc1ncc(-c2ccc(C3(c4noc(-c5cnccn5)n4)CCC3)cc2)cn1` [Example 158, 5-{4-[1-(5-Pyrazin-2-yl-1,2,4-oxadiazol-3-yl)-cyclobutyl]-phenyl}-pyrimidin-2-ylamine] are 5.7 nM and 360 nM.
For `Nc1ncc(-c2ccc(C3(c4noc(-c5ccc(N6CCNCC6)cc5)n4)CCC3)cc2)cn1` [Example 104], in that order: 1.3 nM and 99 nM.
In the case of `Nc1ncc(-c2ccc(C3(c4noc(-c5cnn(CC(=O)NC6CCNCC6)c5)n4)CCC3)cc2)cn1` [Example 237, 2-[4-(3-{1-[4-(2-Amino-pyrimidin-5-yl)-phenyl]-cyclobutyl}-[1,2,4]oxadiazol-5-yl)-pyrazol-1-yl]-N-piperidin-4-yl-acetamide], the IC50 in assay [1] was 2 nM; in assay [2] (Homo sapiens), more than 5000 nM.
In the case of `COC(=O)c1cnc(-c2nc(C3(c4ccc(-c5cnc(N)nc5)cc4)CCC3)no2)cn1` [Example 1, 5-(3-{1-[4-(2-amino-pyrimidin-5-yl)-phenyl]-cyclobutyl}-1,2,4-oxadiazol-5-yl)-pyrazine-2-carboxylic acid methyl ester], the IC50 was found to be 8.4 nM in assay [1] and 330 nM in assay [2] (Homo sapiens).
`CC(C)(O)Cn1cncc1-c1nc(C2(c3ccc(-c4cnc(N)nc4)cc3)CCC2)no1` [Example 298, 1-[5-(3-{1-[4-(2-Amino-pyrimidin-5-yl)-phenyl]-cyclobutyl}-[1,2,4]oxadiazol-5-yl)-imidazol-1-yl]-2-methyl-propan-2-ol]: the IC50 in assay [1] was 16 nM; in assay [2] (Homo sapiens), 510 nM.
Turning to `Nc1ncc(-c2ccc(C3(c4noc(-c5cnn(C6COC6)c5)n4)CC3)cc2)cn1` [Example 255, 5-(4-{1-[5-(1-Oxetan-3-yl-1H-pyrazol-4-yl)-[1,2,4]oxadiazol-3-yl]-cyclopropyl}-phenyl)-pyrimidin-2-ylamine], the IC50 in assay [1] was 150 nM; in assay [2] (Homo sapiens), 1900 nM.
In the same order, the values of `CCN(CC)C(=O)Cn1cc(-c2nc(C3(c4ccc(-c5cnc(N)nc5)cc4)CCC3)no2)cn1` [Example 131, 2-[4-(3-{1-[4-(2-Amino-pyrimidin-5-yl)-phenyl]-cyclobutyl]-1,2,4-oxadiazol-5-yl)-pyrazol-1-yl]-N,N-diethyl-acetamide] are 3.9 nM and 88 nM.
`COCCn1cnc(-c2nc(C3(c4ccc(-c5cnc(N)nc5)cc4)CCC3)no2)c1` [Example 88, 5-[4-(1-{5-[1-(2-Methoxy-ethyl)-1H-imidazol-4-yl]-1,2,4-oxadiazol-3-yl}-cyclobutyl)-phenyl]-pyrimidin-2-ylamine]: the figures for the IC50 in assay [1] and in assay [2] (Homo sapiens) were 6.3 nM and 160 nM, respectively.
For `Nc1ncc(-c2ccc(C3(c4noc(-c5ccnc(NCCO)c5)n4)CCC3)cc2)cn1` [Example 95, 2-[4-(3-{1-[4-(2-Amino-pyrimidin-5-yl)-phenyl]-cyclobutyl}-1,2,4-oxadiazol-5-yl)-pyridin-2-ylamino]-ethanol], in that order: 3.2 nM and 130 nM.
Consider `CC(C)(C)c1ccc(-c2nc(C3(c4ccc(-c5cnc(N)nc5)cc4)CCC3)no2)cc1` [Example 54, 5-(4-{1-[5-(4-tert-Butyl-phenyl)-1,2,4-oxadiazol-3-yl]-cyclobutyl}-phenyl)-pyrimidin-2-ylamine], for which the IC50 is 15 nM in assay [1] and 1200 nM in assay [2] (Homo sapiens).
In the same order, the values of `Nc1ncc(-c2ccc(C3(c4noc(-c5cocn5)n4)CCC3)cc2)cn1` [Example 189, 5-{4-[1-(5-Oxazol-4-yl-1,2,4-oxadiazol-3-yl)-cyclobutyl]-phenyl}-pyrimidin-2-ylamine] are 8.1 nM and 310 nM.
For `Nc1ncc(-c2ccc(C3(c4noc(-c5ccc[nH]c5=O)n4)CCC3)cc2)cn1` [Example 173, 3-(3-{1-[4-(2-amino-pyrimidin-5-yl)-phenyl]-cyclobutyl}-1,2,4-oxadiazol-5-yl)-1H-pyridin-2-one], in that order: 2.9 nM and more than 5000 nM.
For `Nc1ncc(-c2ccc(C3(c4noc(-c5cccnc5)n4)CCOCC3)cc2)cn1` [Example 146, 5-{4-[4-(5-Pyridin-3-yl-1,2,4-oxadiazol-3-yl)-tetrahydro-pyran-4-yl]-phenyl}-pyrimidin-2-ylamine], in that order: 27 nM and 840 nM.
`CN(C)C(=O)Cn1cc(-c2nc(C3(c4ccc(-c5cnc(N)cn5)cc4)CCC3)no2)cn1` [Example 304, 2-[4-(3-{1-[4-(5-Amino-pyrazin-2-yl)-phenyl]-cyclobutyl}-[1,2,4]oxadiazol-5-yl)-pyrazol-1-yl]-N,N-dimethyl-acetamide]: the IC50 in assay [1] is 10 nM; in assay [2] (Homo sapiens), 65 nM.
For `Nc1ncc(-c2ccc(C3(c4noc(-c5cccc(S(N)(=O)=O)c5)n4)CCC3)cc2)cn1` [Example 47, 3-(3-{1-[4-(2-Amino-pyrimidin-5-yl)-phenyl]-cyclobutyl}-1,2,4-oxadiazol-5-yl)-benzenesulfonamide], in that order: 15 nM and 2400 nM.
For `Nc1ncc(-c2ccc(C3(c4noc(-c5cccc(O)c5)n4)CCC3)cc2)cn1` [Example 43, 3-(3-{1-[4-(2-Amino-pyrimidin-5-yl)-phenyl]-cyclobutyl}-1,2,4-oxadiazol-5-yl)-phenol], in that order: 3.2 nM and 230 nM.
Regarding `Nc1ncc(-c2ccc(C3(c4noc(N5CCC(O)CC5)n4)CCC3)cc2)cn1` [Example 284, 1-(3-{1-[4-(2-Amino-pyrimidin-5-yl)-phenyl]-cyclobutyl}-[1,2,4]oxadiazol-5-yl)-piperidin-4-ol], the IC50 in assay [1] was 18 nM; in assay [2] (Homo sapiens), 120 nM.
Take `Nc1ncc(-c2ccc(C3(c4noc(-c5cncnc5)n4)CCC3)cc2)cn1` [Example 159, 5-{4-[1-(5-Pyrimidin-5-yl-1,2,4-oxadiazol-3-yl)-cyclobutyl]-phenyl}-pyrimidin-2-ylamine]: the IC50 in assay [1] is 6 nM; in assay [2] (Homo sapiens) it was 340 nM.
For the compound `CC(=O)N1CCN(CCn2cc(-c3nc(C4(c5ccc(-c6cnc(N)nc6)cc5)CCC4)no3)cn2)CC1` [Example 250, 1-(4-{2-[4-(3-{1-[4-(2-Amino-pyrimidin-5-yl)-phenyl]-cyclobutyl}-[1,2,4]oxadiazol-5-yl)-pyrazol-1-yl]-ethyl}-piperazin-1-yl)-ethanone], the IC50 in assay [1] stood at 8.6 nM; in assay [2] (Homo sapiens) it was 220 nM.
Regarding `Cc1ccc(-c2nc(C3(c4ccc(-c5cnc(N)nc5)cc4)CCCCC3)no2)cn1` [Example 154, 5-(4-{1-[5-(6-Methyl-pyridin-3-yl)-1,2,4-oxadiazol-3-yl]-cyclohexyl}-phenyl)-pyrimidin-2-ylamine], the IC50 in assay [1] amounted to 1.7 nM; in assay [2] (Homo sapiens), 810 nM.
For the compound `Nc1ncc(-c2ccc(C3(c4noc(-c5c[nH]c(=O)[nH]5)n4)CCC3)cc2)cn1` [Example 9, 4-(3-{1-[4-(2-Amino-pyrimidin-5-yl)-phenyl]-cyclobutyl}-1,2,4-oxadiazol-5-yl)-1,3-dihydro-imidazol-2-one], the IC50 in assay [1] was determined as 7 nM; in assay [2] (Homo sapiens), 2000 nM.
As to `Nc1ncc(-c2ccc(C3(c4noc(-c5csc(C6CCNCC6)n5)n4)CCC3)cc2)cn1` [Example 269], the IC50 in assay [1] was 5.6 nM; in assay [2] it was 320 nM.
Take `Nc1ncc(-c2ccc(C3(c4noc(-c5ccc(NCCO)nc5)n4)CCC3)cc2)cn1` [Example 180, 2-[5-(3-{1-[4-(2-Amino-pyrimidin-5-yl)-phenyl]-cyclobutyl}-1,2,4-oxadiazol-5-yl)-pyridin-2-ylamino]-ethanol]: the figures for the IC50 in assay [1] and in assay [2] (Homo sapiens) were 0.85 nM and 73 nM, respectively.
In the same order, the values of `CS(=O)(=O)N1CCN(c2cnc(-c3nc(C4(c5ccc(-c6cnc(N)nc6)cc5)CCC4)no3)cn2)CC1` [Example 202, 5-(4-{1-[5-(4-Methanesulfonyl-3,4,5,6-tetrahydro-2H-1,2′-bipyrazinyl-5′-yl)-1,2,4-oxadiazol-3-yl]-cyclobutyl}-phenyl)-pyrimidin-2-ylamine] are 2.6 nM and 70 nM.
In the same order, the values of `Nc1ncc(-c2ccc(C3(c4noc(-c5nc[nH]n5)n4)CCC3)cc2)cn1` [Example 96, 5-(4-{1-[5-(1H-1,2,4-Triazol-3-yl)-1,2,4-oxadiazol-3-yl]-cyclobutyl}-phenyl)-pyrimidin-2-ylamine] are 13 nM and 2700 nM.
For `CN(C)C(=O)Cn1cc(-c2nc(C3(c4ccc(-c5cnc(N)nc5)cc4)CCC3)no2)cn1` [Example 188, 2-[4-(3-{1-[4-(2-amino-pyrimidin-5-yl)-phenyl]-cyclobutyl}-1,2,4-oxadiazol-5-yl)-pyrazol-1-yl]-N,N-dimethyl-acetamide], in that order: 6.2 nM and 81 nM.
